The record followed here is the OligoGym collection.

The target in the data set is SOD1. Conditions: ASO.

Values joined by “and” are separate entries in the source; they are usually repeats but may differ in a detail not shown here. Equal values may be shown once. After the bases stand the sugars from the 5' end (letter, count) and the backbone: PS all phosphorothioate, else s phosphorothioate and o phosphodiester by linkage. Methylation of C is not given here. e = 2'-O-(2-methoxyethyl) (MOE); k = constrained ethyl (cEt); d = 2'-deoxy (DNA)

For “CCAAGGGAATGTTTATT (sugars e3 k2 d7 k2 e3, PS)”, the target mRNA inhibition (HepG2, 3 µM) worked out at 36%.

Under “HepG2, 5 µM”, “CCAAGTGATCATAAATC (sugars e2 k2 d8 k2 e3, PS)” came in with a target mRNA inhibition of 40%.

“CCAATTACACCACAAGC (sugars e3 k2 d7 k2 e3, PS)” had a target mRNA inhibition (HepG2, 3 µM) of 29%.

As to “CCACACCATCTTTGTCAGCA (sugars e5 d10 e5, PS)”, the target mRNA inhibition (HepG2, 5 µM) was 39% and 20%.

With “CCACACCTTCACTGGTCCAT (sugars e5 d10 e5, PS)”, the target mRNA inhibition (HepG2, 2 µM) turned out to be 50%.

Turning to “CCACTCTGGCCCCAAAC (sugars e3 k2 d7 k2 e3, PS)”, the target mRNA inhibition (HepG2, 3 µM) stood at 17%.

Where the note is “HepG2, 4 µM”, “CCAGACCTCCGCGCCTCGCC (sugars e5 d10 e5, PS)” yielded a target mRNA inhibition of 46%.

For “CCATGCAGGCCTTCAGT (sugars e3 k2 d7 k2 e3, PS)”, the target mRNA inhibition (HepG2, 3 µM) stood at 21%.

“CCCAATTACACCACAAG (sugars e2 k2 d8 k2 e3, PS)” gave a target mRNA inhibition (HepG2, 4 µM) of 63%.

Where the note is “HepG2, 5 µM”, “CCCATCTGTGATTTAAGTCT (sugars e5 d10 e5, PS)” returned a target mRNA inhibition of 41%.

For the setting “HepG2, 4 µM”, “CCCCGTCTCCGCGACTACTT (sugars e5 d10 e5, PS)” registered a target mRNA inhibition of 16%.

With “CCCTTCAGCACGCACAC (sugars e2 k2 d8 k2 e3, PS)”, the target mRNA inhibition was determined as 25% (HepG2, 0.1875 µM); 22% (HepG2, 0.75 µM); 50% (HepG2, 2 µM); 72% (HepG2, 3 µM); 74% (HepG2, 4 µM); 79% (HepG2, 12 µM).

“CCGCGCCTCGCCCACTCTGG (sugars e5 d10 e5, PS)” displayed a target mRNA inhibition (HepG2, 4 µM) of 27%.

On to “CCGTCGCCCTTCAGCAC (sugars e2 k2 d9 k2 e2, PS)”, for which the target mRNA inhibition by setting is: (HepG2, 0.1875 µM) 24%; (HepG2, 0.75 µM) 42%; (HepG2, 3 µM) 80%; (HepG2, 4 µM) 75%; (HepG2, 12 µM) 94%.

As to “CCGTCGCCCTTCAGCAC (sugars e3 k2 d7 k2 e3, PS)”, the target mRNA inhibition (HepG2, 3 µM) was determined as 27%.

Turning to “CCGTCGCCCTTCAGCACGCA (sugars e5 d8 e7, linkages s1 o3 s10 o3 s2)”, the target mRNA inhibition turned out to be 8% (A431, 0.062 µM); 4% (A431, 0.185 µM); 5% (A431, 0.556 µM); 4% (A431, 1.667 µM); 9% (A431, 5 µM); 3% (A431, 15 µM). Also, the target mRNA inhibition is 11% (SH-SY5Y, 0.062 µM); 15% (SH-SY5Y, 0.185 µM); 9% (SH-SY5Y, 0.556 µM); 30% (SH-SY5Y, 1.667 µM); 59% (SH-SY5Y, 5 µM); 76% (SH-SY5Y, 15 µM).

Sequence “CCTCAGACTACATCCAA (sugars e2 k2 d9 k2 e2, PS)” displayed a target mRNA inhibition (HepG2, 0.1875 µM) of 11%; a target mRNA inhibition (HepG2, 0.75 µM) of 67%; a target mRNA inhibition (HepG2, 3 µM) of 89%; a target mRNA inhibition (HepG2, 4 µM) of 87%; a target mRNA inhibition (HepG2, 12 µM) of 94%.

In turn, “CCTCATAATAAGTGCCA (sugars e2 k2 d9 k2 e2, PS)” yielded a target mRNA inhibition (HepG2, 5 µM) of 31%.

In the case of “CCTGCACTGGTACAGCC (sugars e3 k2 d7 k2 e3, PS)”, for the setting “HepG2, 3 µM”, the target mRNA inhibition came out at 17%.

Take “CCTTCTGCTCGAAATTG (sugars e3 k2 d7 k2 e3, PS)”: for the setting “HepG2, 3 µM”, the target mRNA inhibition was 16%.

Sequence “CCTTTGGCCCACCGTGT (sugars e3 k2 d7 k2 e3, PS)” showed a target mRNA inhibition (HepG2, 3 µM) of 46%.

Where the note is “HepG2, 4 µM”, “CGATCCCAATTACACCA (sugars e2 k2 d9 k2 e2, PS)” gave a target mRNA inhibition of 59%.

For the sequence “CGCCCTTCAGCACGCAC (sugars e2 k2 d8 k2 e3, PS)”, the target mRNA inhibition (HepG2, 4 µM) was 67%.

As to “CGCCCTTCAGCACGCAC (sugars e2 k2 d9 k2 e2, PS)”, the target mRNA inhibition came out at 12% (HepG2, 0.1875 µM); 47% (HepG2, 0.75 µM); 79% (HepG2, 3 µM); 73% (HepG2, 4 µM); 94% (HepG2, 12 µM).

In the case of “CGCTGCAGGAGACTACG (sugars e3 k2 d7 k2 e3, PS)”, where the note is “HepG2, 3 µM”, the target mRNA inhibition worked out at 0%.
